The target of experiment [1] is intracellular GCN2 (phosphorylation of the GCN2 substrate eIF2α) (Homo sapiens, UniProt Q9P2K8). The experiment in a line: GCN2 cellular inhibition assay (AlphaScreen SureFire P-eIF2α Ser51, borrelidin-treated U2OS cells). It counts as cell-based. Conditions: compounds of Formula II; biomarker assay, phosphorylated eIF2α Ser51 in borrelidin-treated U2OS cells. The gist of the method:
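Compound effect on GCN2 is gauged by eIF2α Ser51 phosphorylation in borrelidin-challenged U2OS cells (10 μM, 1 h). Top compound level is 40 μM final.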

For a further experiment, the target named is GCN2 kinase (Homo sapiens, UniProt Q9P2K8). Description: GCN2 enzyme inhibition assay (Transcreener ADP2 fluorescence polarization). It counts as biochemical. Conditions: compounds of Formula II; 280 μM ATP, 4 nM GCN2 kinase. The method in brief: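 Kinase activity is followed as ADP formation, measured by fluorescence polarization, using 4 nM enzyme with 280 μM ATP and 200 μM (RS)7 peptide at pH 7.5 and 25 °C for 1 h. Values come from a non-linear tight-binding fit.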
Sequence of GCN2 kinase (Q9P2K8 whole entry): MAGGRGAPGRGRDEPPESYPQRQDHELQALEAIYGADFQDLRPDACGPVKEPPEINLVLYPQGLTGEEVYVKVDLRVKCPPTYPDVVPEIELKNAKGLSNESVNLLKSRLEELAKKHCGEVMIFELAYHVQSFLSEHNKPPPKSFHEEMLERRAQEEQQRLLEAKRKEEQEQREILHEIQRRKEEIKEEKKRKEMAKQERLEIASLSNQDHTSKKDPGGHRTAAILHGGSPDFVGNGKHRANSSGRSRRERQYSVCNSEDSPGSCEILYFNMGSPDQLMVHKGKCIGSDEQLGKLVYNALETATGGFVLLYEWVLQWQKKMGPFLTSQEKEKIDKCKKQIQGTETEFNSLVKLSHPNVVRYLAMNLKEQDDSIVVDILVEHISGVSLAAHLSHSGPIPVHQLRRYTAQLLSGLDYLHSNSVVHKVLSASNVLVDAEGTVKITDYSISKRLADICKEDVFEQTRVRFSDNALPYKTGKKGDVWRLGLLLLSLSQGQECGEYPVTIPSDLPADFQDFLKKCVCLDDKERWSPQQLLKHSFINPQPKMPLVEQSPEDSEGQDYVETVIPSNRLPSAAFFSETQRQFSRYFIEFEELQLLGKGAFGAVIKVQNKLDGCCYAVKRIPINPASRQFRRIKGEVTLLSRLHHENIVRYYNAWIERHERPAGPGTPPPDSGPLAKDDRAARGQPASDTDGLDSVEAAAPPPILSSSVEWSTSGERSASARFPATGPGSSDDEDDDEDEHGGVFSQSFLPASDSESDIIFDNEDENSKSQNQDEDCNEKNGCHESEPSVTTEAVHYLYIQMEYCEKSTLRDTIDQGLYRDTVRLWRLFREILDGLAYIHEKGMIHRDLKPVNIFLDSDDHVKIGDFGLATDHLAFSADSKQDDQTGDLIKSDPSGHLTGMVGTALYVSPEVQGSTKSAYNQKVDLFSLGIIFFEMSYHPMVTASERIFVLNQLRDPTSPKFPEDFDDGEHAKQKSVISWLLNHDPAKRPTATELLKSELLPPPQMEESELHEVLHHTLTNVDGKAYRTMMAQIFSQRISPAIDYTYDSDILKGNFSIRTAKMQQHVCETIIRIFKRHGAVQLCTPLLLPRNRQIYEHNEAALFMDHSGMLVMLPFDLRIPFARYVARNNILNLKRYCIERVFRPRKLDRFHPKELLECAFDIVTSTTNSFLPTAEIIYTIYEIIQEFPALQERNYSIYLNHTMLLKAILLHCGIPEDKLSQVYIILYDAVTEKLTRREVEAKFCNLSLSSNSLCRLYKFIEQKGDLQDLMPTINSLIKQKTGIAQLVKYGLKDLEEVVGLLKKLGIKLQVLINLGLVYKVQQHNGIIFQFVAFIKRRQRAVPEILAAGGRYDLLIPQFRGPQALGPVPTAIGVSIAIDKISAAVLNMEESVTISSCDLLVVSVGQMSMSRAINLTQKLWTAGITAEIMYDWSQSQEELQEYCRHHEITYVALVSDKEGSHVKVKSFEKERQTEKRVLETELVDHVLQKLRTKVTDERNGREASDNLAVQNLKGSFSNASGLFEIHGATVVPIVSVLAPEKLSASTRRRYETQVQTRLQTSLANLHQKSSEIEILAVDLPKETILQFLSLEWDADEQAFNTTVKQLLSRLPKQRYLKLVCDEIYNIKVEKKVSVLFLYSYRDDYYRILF
(Polarisation of emitted light reports the rotation of a fluorescent probe.)

Where only a bound is given, the exact number is not on record here.

Sequence of intracellular GCN2 (phosphorylation of the GCN2 substrate eIF2α) (Q9P2K8 whole entry): as above

Turning to `CC1(NS(C)(=O)=O)CCCN(c2cc(-c3cnc4ccc(C(F)F)nn34)ncn2)C1` (stereo not shown) [II-446, N-(1-(6-(6-(Difluoromethyl)imidazo[1,2-b]pyridazin-3-yl)pyrimidin-4-yl)-3-methylpiperidin-3-yl)methanesulfonamide], the IC50 (as a rule, the concentration at which inhibition is half-maximal) in experiment [1] was over 5000 nM. On GCN2 kinase, the Ki (in general, a measure of affinity in units of concentration, obtained from inhibition or displacement) was in the range of 10 to 1000 nM.

Consider `CS(=O)(=O)NCC12CC1CN(c1cc(-c3cnc4ccc(C(F)F)nn34)ncn1)C2` (stereo not shown) [II-447, N-((3-(6-(6-(Difluoromethyl)imidazo[1,2-b]pyridazin-3-yl)pyrimidin-4-yl)-3-azabicyclo[3.1.0]hexan-1-yl)methyl)methanesulfonamide], for which the IC50 in experiment [1] was in the range of 500 to 5000 nM. The compound further registered a Ki at GCN2 kinase of 10 to 1000 nM.

For `CC1C(CNS(C)(=O)=O)N(C)C(C)CN1c1cc(-c2cnc3ccc(C(F)F)nn23)ncn1` (stereo not shown) [II-448, N-((4-(6-(6-(Difluoromethyl)imidazo[1,2-b]pyridazin-3-yl)pyrimidin-4-yl)-1,3,6-trimethylpiperazin-2-yl)methyl)methanesulfonamide], in experiment [1], the IC50 was under 500 nM. Also, the Ki at GCN2 kinase was under 10 nM.

In the case of `C[C@@H]1C[C@H](NS(C)(=O)=O)CN(c2cc(-c3cnc4ccc(C(F)F)nn34)ncn2)C1` [II-449, N-((3S,5R)-1-(6-(6-(Difluoromethyl)imidazo[1,2-b]pyridazin-3-yl)pyrimidin-4-yl)-5-methylpiperidin-3-yl)methanesulfonamide], the IC50 in experiment [1] was under 500 nM. Moreover, at GCN2 kinase, the Ki is under 10 nM.

In experiment [1], `CS(=O)(=O)NCC1CN(c2cc(-c3cnc4ccc(C(F)F)nn34)ncn2)CCN1` (stereo not shown) [II-450, N-((4-(6-(6-(Difluoromethyl)imidazo[1,2-b]pyridazin-3-yl)pyrimidin-4-yl)piperazin-2-yl)methyl)methanesulfonamide] had an IC50 of 500 to 5000 nM. For the same compound, on GCN2 kinase, the Ki lay in the range of 10 to 1000 nM.

Turning to `FC(F)c1ccc2ncc(-c3cc(N4CC5CC(C4)O5)ncn3)n2n1` [II-451, 3-(6-(6-(Difluoromethyl)imidazo[1,2-b]pyridazin-3-yl)pyrimidin-4-yl)-6-oxa-3-azabicyclo[3.1.1]heptane], the IC50 in experiment [1] was in the range of 500 to 5000 nM. In addition, on GCN2 kinase, the Ki was 10 to 1000 nM.

Compound `CN1CCN(c2cc(-c3cnc4ccc(C(F)F)nn34)ncn2)CC12CN(S(C)(=O)=O)C2` [II-452, 8-(6-(6-(Difluoromethyl)imidazo[1,2-b]pyridazin-3-yl)pyrimidin-4-yl)-5-methyl-2-(methylsulfonyl)-2,5,8-triazaspiro[3.5]nonane] gave an IC50 in experiment [1] of 500 to 5000 nM. The compound also had a Ki on GCN2 kinase of 10 to 1000 nM.

Take `CN1CCN(c2cc(-c3cnc4ccc(C(F)F)nn34)ncn2)CC1C(N)=O` (stereo not shown) [II-453, 4-(6-(6-(Difluoromethyl)imidazo[1,2-b]pyridazin-3-yl)pyrimidin-4-yl)-1-methylpiperazine-2-carboxamide]: in experiment [1], the IC50 is over 5000 nM. In addition, at GCN2 kinase, the Ki is 10 to 1000 nM.

On to `OC1([C@@H]2CN(c3cc(-c4cnc5ccc(C(F)F)nn45)ncn3)CCN2)CC1` [II-454, (S)-1-(4-(6-(6-(Difluoromethyl)imidazo[1,2-b]pyridazin-3-yl)pyrimidin-4-yl)piperazin-2-yl)cyclopropan-1-ol], for which the IC50 in experiment [1] is over 5000 nM. On GCN2 kinase, this compound yielded a Ki of 10 to 1000 nM.

`CN(C1CCCN(c2cc(-c3cnc4ccc(C(F)F)nn34)ncn2)C1)S(C)(=O)=O` (stereo not shown) [II-455, N-(1-(6-(6-(Difluoromethyl)imidazo[1,2-b]pyridazin-3-yl)pyrimidin-4-yl)piperidin-3-yl)-N-methylmethanesulfonamide]: the IC50 in experiment [1] was 500 to 5000 nM. At GCN2 kinase, this compound displayed a Ki of 10 to 1000 nM.

For `CN(C)CC(=O)N(CC1CCCN(c2cc(-c3cnc4ccc(C(F)F)nn34)ncn2)C1)S(C)(=O)=O` (stereo not shown) [II-456, N-((1-(6-(6-(Difluoromethyl)imidazo[1,2-b]pyridazin-3-yl)pyrimidin-4-yl)piperidin-3-yl)methyl)-2-(dimethylamino)-N-(methylsulfonyl)acetamide], in experiment [1], the IC50 was under 500 nM. In addition, the Ki on GCN2 kinase lay in the range of 10 to 1000 nM.

For `CC1(C)COC(CNS(C)(=O)=O)CN1c1cc(-c2cnc3ccc(C(F)F)nn23)ncn1` (stereo not shown) [II-457, N-((4-(6-(6-(Difluoromethyl)imidazo[1,2-b]pyridazin-3-yl)pyrimidin-4-yl)-5,5-dimethylmorpholin-2-yl)methyl)methanesulfonamide], in experiment [1], the IC50 was 500 to 5000 nM. The Ki on GCN2 kinase lay in the range of 10 to 1000 nM.

Take `CN1CCN(c2cc(-c3cnc4ccc(C(F)F)nn34)ncn2)C[C@H]1C1(O)CC1` [II-459, (S)-1-(4-(6-(6-(Difluoromethyl)imidazo[1,2-b]pyridazin-3-yl)pyrimidin-4-yl)-1-methylpiperazin-2-yl)cyclopropan-1-ol]: in experiment [1], the IC50 is over 5000 nM. At GCN2 kinase, the Ki was over 1000 nM.

`CS(=O)(=O)NC(=O)C1CCCN(c2cc(-c3cnc4ccc(C(F)F)nn34)ncn2)C1` (stereo not shown) [II-460, 1-(6-(6-(Difluoromethyl)imidazo[1,2-b]pyridazin-3-yl)pyrimidin-4-yl)-N-(methylsulfonyl)piperidine-3-carboxamide] yielded an IC50 in experiment [1] of over 5000 nM. The compound also returned a Ki on GCN2 kinase of 10 to 1000 nM.

Take `CC1C(CNS(C)(=O)=O)C(F)(F)C(C)CN1c1cc(-c2cnc3ccc(C(F)F)nn23)ncn1` (stereo not shown) [II-461, N-((1-(6-(6-(Difluoromethyl)imidazo[1,2-b]pyridazin-3-yl)pyrimidin-4-yl)-4,4-difluoro-2,5-dimethylpiperidin-3-yl)methyl)methanesulfonamide]: the IC50 in experiment [1] lay in the range of 500 to 5000 nM. At GCN2 kinase, this compound had a Ki of under 10 nM.

Take `CC1C(CNS(C)(=O)=O)C(F)(F)C(C)CN1c1cc(-c2cnc3ccc(C(F)F)nn23)ncn1` (stereo not shown) [II-462, N-((1-(6-(6-(Difluoromethyl)imidazo[1,2-b]pyridazin-3-yl)pyrimidin-4-yl)-4,4-difluoro-2,5-dimethylpiperidin-3-yl)methyl)methanesulfonamide]: the IC50 in experiment [1] is under 500 nM. This compound also returned a Ki on GCN2 kinase of under 10 nM.

In experiment [1], `CC1C(CNS(C)(=O)=O)N(C2CC2)CCN1c1cc(-c2cnc3ccc(C(F)F)nn23)ncn1` (stereo not shown) [II-463, N-((1-Cyclopropyl-4-(6-(6-(difluoromethyl)imidazo[1,2-b]pyridazin-3-yl)pyrimidin-4-yl)-3-methylpiperazin-2-yl)methyl)methanesulfonamide] had an IC50 of under 500 nM. This compound also yielded a Ki on GCN2 kinase of under 10 nM.

As to `CC(NS(C)(=O)=O)C1CN(c2cc(-c3cnc4ccc(C(F)F)nn34)ncn2)CCN1` (stereo not shown) [II-465, N-(1-(4-(6-(6-(Difluoromethyl)imidazo[1,2-b]pyridazin-3-yl)pyrimidin-4-yl)piperazin-2-yl)ethyl)methanesulfonamide], in experiment [1], the IC50 lay within 500 to 5000 nM. The Ki at GCN2 kinase lay within 10 to 1000 nM.

Take `CC1C(CNS(C)(=O)=O)NCCN1c1cc(-c2cnc3ccc(C(F)(F)F)nn23)ncn1` (stereo not shown) [II-466, N-((3-Methyl-4-(6-(6-(trifluoromethyl)imidazo[1,2-b]pyridazin-3-yl)pyrimidin-4-yl)piperazin-2-yl)methyl)methanesulfonamide]: in experiment [1], the IC50 was under 500 nM. The Ki on GCN2 kinase was under 10 nM.

For `CC(NS(C)(=O)=O)C1CN(c2cc(-c3cnc4ccc(C(F)F)nn34)ncn2)CCN1C` (stereo not shown) [II-473, N-(1-(4-(6-(6-(Difluoromethyl)imidazo[1,2-b]pyridazin-3-yl)pyrimidin-4-yl)-1-methylpiperazin-2-yl)ethyl)methanesulfonamide], the concentration for half-maximal inhibition (IC50) in experiment [1] was over 5000 nM. Also, on GCN2 kinase, the Ki was in the range of 10 to 1000 nM.

Consider `CC(NS(C)(=O)=O)C1CN(c2cc(-c3cnc4ccc(C(F)F)nn34)ncn2)CCN1C` (stereo not shown) [II-474, N-(1-(4-(6-(6-(Difluoromethyl)imidazo[1,2-b]pyridazin-3-yl)pyrimidin-4-yl)-1-methylpiperazin-2-yl)ethyl)methanesulfonamide], for which the IC50 in experiment [1] fell in the range of 500 to 5000 nM. The Ki on GCN2 kinase lay within 10 to 1000 nM.

In turn, `CC1C(CNS(C)(=O)=O)C(F)(F)C(C)CN1c1cc(-c2cnc3ccc(C(F)F)nn23)ncn1` (stereo not shown) [II-475, N-((1-(6-(6-(Difluoromethyl)imidazo[1,2-b]pyridazin-3-yl)pyrimidin-4-yl)-4,4-difluoro-2,5-dimethylpiperidin-3-yl)methyl)methanesulfonamide] registered an IC50 in experiment [1] of under 500 nM. Besides, the Ki on GCN2 kinase fell in the range of 10 to 1000 nM.

In turn, `CC1C(CNS(C)(=O)=O)C(F)(F)C(C)CN1c1cc(-c2cnc3ccc(C(F)F)nn23)ncn1` (stereo not shown) [II-476, N-((1-(6-(6-(Difluoromethyl)imidazo[1,2-b]pyridazin-3-yl)pyrimidin-4-yl)-4,4-difluoro-2,5-dimethylpiperidin-3-yl)methyl)methanesulfonamide] showed an IC50 in experiment [1] of 500 to 5000 nM. The compound further had a Ki at GCN2 kinase of 10 to 1000 nM.

In experiment [1], `CC1C(C(N)=O)NCCN1c1cc(-c2cnc3ccc(C(F)F)nn23)ncn1` (stereo not shown) [II-477, 4-(6-(6-(Difluoromethyl)imidazo[1,2-b]pyridazin-3-yl)pyrimidin-4-yl)-3-methylpiperazine-2-carboxamide] returned an IC50 of 500 to 5000 nM. This compound displayed an inhibition constant Ki at GCN2 kinase of 10 to 1000 nM.

In experiment [1], `CNS(=O)(=O)C1CCCN(c2cc(-c3cnc4ccc(C(F)F)nn34)ncn2)C1` (stereo not shown) [II-480, 1-(6-(6-(Difluoromethyl)imidazo[1,2-b]pyridazin-3-yl)pyrimidin-4-yl)-N-methylpiperidine-3-sulfonamide] came in with an IC50 of over 5000 nM. This compound gave a Ki at GCN2 kinase of 10 to 1000 nM.

In experiment [1], `CS(=O)(=O)NCC1COCCN(c2cc(-c3cnc4ccc(C(F)F)nn34)ncn2)C1` (stereo not shown) [II-481, N-((4-(6-(6-(Difluoromethyl)imidazo[1,2-b]pyridazin-3-yl)pyrimidin-4-yl)-1,4-oxazepan-6-yl)methyl)methanesulfonamide] displayed an IC50 of 500 to 5000 nM. The compound also came in with a Ki on GCN2 kinase of 10 to 1000 nM.
